Results: ChEMBL document CHEMBL1125980, “Structural homologies among thromboxane (TXA2) receptor antagonists: Minimal pharmacophoric requirements for high affinity interaction with TXA2 receptors” (Bioorg Med Chem Lett, 1991)

Columns and labels:
Thromboxane A2 receptor = molecular target: T1, Thromboxane A2 receptor (Homo sapiens, UniProt P21731); test: Tested for binding affinity against platelet TXA2 receptor in washed human platelets using [125I]BOP as radioligand
T1 sequence (P21731 whole entry): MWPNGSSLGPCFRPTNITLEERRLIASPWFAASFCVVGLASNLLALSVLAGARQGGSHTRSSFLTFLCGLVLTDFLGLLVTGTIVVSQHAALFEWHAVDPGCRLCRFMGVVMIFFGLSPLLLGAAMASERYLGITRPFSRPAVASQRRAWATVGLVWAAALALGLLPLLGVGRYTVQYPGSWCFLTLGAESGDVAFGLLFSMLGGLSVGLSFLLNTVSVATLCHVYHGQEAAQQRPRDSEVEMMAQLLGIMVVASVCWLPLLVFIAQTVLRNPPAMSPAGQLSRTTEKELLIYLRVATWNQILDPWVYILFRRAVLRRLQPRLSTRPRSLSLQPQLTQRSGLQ

Homo sapiens = organism: Homo sapiens; test: Tested for concentration required for antagonism of U-46,619-Induced Human Platelet Aggregation; assay type: functional

Compound `O=C(O)CCC/C=C\C[C@H]1CCC[C@@H]1NS(=O)(=O)c1ccccc1` has a Kd (Thromboxane A2 receptor) of 7.5 nM and an IC50 (Homo sapiens) of 150 nM.
With `O=C(O)CCC/C=C\CC1C2CCC(C2)C1NS(=O)(=O)c1ccccc1` (stereo not given) the Kd (Thromboxane A2 receptor) was 2.9 nM and the IC50 (Homo sapiens) was 32 nM.
For `O=C(O)CCC/C=C\C[C@H]1CCC[C@H]1NS(=O)(=O)c1ccccc1`, the Kd (Thromboxane A2 receptor) was 36 nM and the IC50 (Homo sapiens) was 250 nM.
Work on `O=C(O)CCC/C=C/CCCNS(=O)(=O)c1ccccc1` yielded a Kd (Thromboxane A2 receptor) of 67 nM and an IC50 (Homo sapiens) of 1000 nM.
Work on `O=C(O)CCCCCCCCNS(=O)(=O)c1ccccc1` yielded a Kd (Thromboxane A2 receptor) of 172 nM and an IC50 (Homo sapiens) of 1500 nM.
